According to patent US6147100A, “Pyrrolidine derivatives having phospholipase A2 inhibitory activity” (Shionogi & Co., Ltd., priority 1997, dated 2000):

tested on: production of prostaglandin E2 by human fibroblasts; assay: Inhibition of Production of Prostaglandin E2 in Human Fibroblasts (IL-1 stimulation); assay type: cell-based; details: Fibroblast; human fibroblasts under stimulation with IL-1
Description: Test Example 2 Inhibition of Production of Prostaglandin E2 in Human Fibroblasts.
In order to examine the availability of the composition for inhibiting cytosolic phospholipase A2 (cPLA2) on the cells, the compounds of the present invention were tested for the effect on the production of prostaglandin E2 by human fibroblasts under the stimulation with IL-1 according to the method of J. M. Dayer et al (CACHECTIN/TUMOR NECROSIS FACTOR STIMULATES COLLAGENASE AND PROSTAGLANDIN E2 PRODUCTION BY HUMAN SYNOVIAL CELLS AND DERMAL FIBROBLASTS; J. M. Dayer, B, Beutler and A, Cerami, J. EXP. Med., 1985, 162, 2163-2168.).

| Structure (SMILES) | IC50 [nM] |
| --- | --- |
| O=C1NC(=S)S/C1=C\c1ccc(S(=O)(=O)NC[C@@H]2C[C@@H](OCc3ccccc3-c3ccccc3)CN2C(=O)c2ccccc2C(=O)c2ccc(F)cc2)s1 [Compound A-61] | 970 |
| O=C1NC(=S)S/C1=C\c1ccc(S(=O)(=O)NC[C@@H]2C[C@@H](OCc3ccccc3-c3ccccc3)CN2C(=O)c2ccccc2C(=O)c2ccc(F)cc2)cc1 [Compound A-63] | 900 |

target: T1, cPLA2 (Homo sapiens, UniProt P47712); assay: cPLA2 Inhibitory Activity; assay type: biochemical; details: 1-palmitoyl-2-[14C]-arachidonoyl-sn-glycero-3-phosphocholine 2.5 μM, sn-1,2-dioleoylglycerol 1.25 μM; pH 7.5, 15 min at 37° C.
T1 sequence (P47712 1-749): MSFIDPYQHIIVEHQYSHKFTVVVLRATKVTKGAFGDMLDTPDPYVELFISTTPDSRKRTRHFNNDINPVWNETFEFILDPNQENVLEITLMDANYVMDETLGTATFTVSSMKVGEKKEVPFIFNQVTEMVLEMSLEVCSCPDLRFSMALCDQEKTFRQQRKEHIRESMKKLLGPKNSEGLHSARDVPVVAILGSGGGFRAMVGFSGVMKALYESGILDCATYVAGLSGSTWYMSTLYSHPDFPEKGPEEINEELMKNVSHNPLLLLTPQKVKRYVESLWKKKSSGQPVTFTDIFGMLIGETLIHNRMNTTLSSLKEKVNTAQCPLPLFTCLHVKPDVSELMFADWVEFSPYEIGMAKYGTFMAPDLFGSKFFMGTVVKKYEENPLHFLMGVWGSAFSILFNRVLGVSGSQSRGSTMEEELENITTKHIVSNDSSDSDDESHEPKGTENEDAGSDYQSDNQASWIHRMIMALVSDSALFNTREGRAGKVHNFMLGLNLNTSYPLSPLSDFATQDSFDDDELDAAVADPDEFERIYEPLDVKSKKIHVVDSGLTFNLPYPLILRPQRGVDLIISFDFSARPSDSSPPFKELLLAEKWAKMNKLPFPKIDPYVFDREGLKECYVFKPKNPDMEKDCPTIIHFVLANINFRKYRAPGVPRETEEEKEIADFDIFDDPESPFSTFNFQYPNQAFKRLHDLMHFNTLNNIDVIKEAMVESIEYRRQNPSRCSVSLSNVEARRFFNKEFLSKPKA
Description: Test Example 1 cPLA2 Inhibitory Activity The compounds of the present invention were tested for the cPLA2 inhibitory activity according to the method disclosed in […]. Roberts, […], and J. E. Putnam, J. Biol. Chem., 1991, 266, 5268-5272 as outlined below. […] The reaction mixture includes 50 mM HEPES buffer (pH 7.5), 1 mM calcium chloride, 150 mM sodium chloride, 0.1 mg/ml bovine serum albumin, and 1.7 mM dithiothreitol. To the reaction mixture was added the compound of the present invention and the substrate solution. The reaction was allowed to start by adding an enzyme and continued for 15 min at 37° C. The fatty acids released by the reaction were extracted by the method described in V. P. Dole, and H. Meinertz, J. Biol. Chem., 1960, 235, 2595-2599 and its radiation activity was measured on a liquid scintillation counter. Control was obtained by conducting the experiment in the same manner except that a compound of the present invention was not added.

| Structure (SMILES) | IC50 [nM] |
| --- | --- |
| CC(C)Oc1ccccc1-c1ccccc1O[C@@H]1C[C@@H](CNC(=O)c2ccc(/C=C3\SC(=O)NC3=O)cc2)N(C(=O)c2ccccc2C(=O)c2ccc(F)cc2)C1 [Compound A-121] | 65 |
| CC(C)Cc1cccc(-c2ccccc2)c1O[C@@H]1C[C@@H](CNC(=O)c2ccc(/C=C3\SC(=O)NC3=O)cc2)N(C(=O)c2ccccc2C(=O)c2ccc(F)cc2)C1 [Compound A-124] | 24 |
| CC(C)Cc1cccc(-c2cccc3ccccc23)c1O[C@@H]1C[C@@H](CNC(=O)c2ccc(/C=C3\SC(=O)NC3=O)cc2)N(C(=O)c2ccccc2C(=O)c2ccc(F)cc2)C1 [Compound A-125] | 6.6 |
| CC(C)Cc1cccc(-c2ccccc2C(C)C)c1O[C@@H]1C[C@@H](CNC(=O)c2ccc(/C=C3\SC(=O)NC3=O)cc2)N(C(=O)c2ccccc2C(=O)c2ccc(F)cc2)C1 [Compound A-126] | 5.5 |
| O=C1NC(=O)C(=CC2CCN(C(=O)[C@@H]3C[C@@H](OCc4ccccc4-c4ccccc4)CN3C(=O)c3ccccc3C(=O)c3ccc(F)cc3)CC2)S1 [Compound B-9] | 14000 |
| O=C1NC(=O)/C(=C/c2ccc(/C=C\[C@@H]3C[C@@H](OCc4ccccc4-c4ccccc4)CN3C(=O)c3ccccc3C(=O)c3ccc(F)cc3)s2)S1 [Compound E-6] | 1500 |
| O=C1NC(=S)S/C1=C\c1ccc(/C=C/[C@@H]2C[C@@H](OCc3ccccc3-c3ccccc3)CN2C(=O)c2ccccc2C(=O)c2ccc(F)cc2)s1 [Compound E-7] | 1600 |
| O=C1NC(=O)/C(=C/c2ccc(/C=C/[C@@H]3C[C@@H](OCc4ccccc4-c4ccccc4)CN3C(=O)c3ccccc3C(=O)c3ccc(F)cc3)s2)S1 [Compound E-8] | 1400 |
| O=C1NC(=S)S/C1=C\c1ccc(CCC[C@@H]2C[C@@H](OCc3ccccc3-c3ccccc3)CN2C(=O)c2ccccc2C(=O)c2ccc(F)cc2)cc1 [Compound E-10] | 790 |
| O=C1NC(=S)S/C1=C\c1ccc(/C=C\C[C@@H]2C[C@@H](OCc3ccccc3-c3ccccc3)CN2C(=O)c2ccccc2C(=O)c2ccc(F)cc2)cc1 [Compound E-11] | 320 |
| O=C1NC(=S)S/C1=C\c1ccc(/C=C/C[C@@H]2C[C@@H](OCc3ccccc3-c3ccccc3)CN2C(=O)c2ccccc2C(=O)c2ccc(F)cc2)cc1 [Compound E-13] | 77 |
| O=C1NC(=O)/C(=C/c2ccc(C(=O)NCCC[C@@H]3C[C@@H](OCc4ccccc4-c4ccccc4)CN3C(=O)c3ccccc3C(=O)c3ccc(F)cc3)cc2)S1 [Compound F-1] | 15000 |
| O=C1NC(=O)/C(=C/c2ccc(C(=O)NCC[C@@H]3C[C@@H](OCc4ccccc4-c4ccccc4)CN3C(=O)c3ccccc3C(=O)c3ccc(F)cc3)cc2)S1 [Compound F-2] | 4700 |
| CN(Cc1ccc(/C=C2\SC(=S)NC2=O)cc1)C[C@@H]1C[C@@H](OCc2ccccc2-c2ccccc2)CN1C(=O)c1ccccc1C(=O)c1ccc(F)cc1 [Compound G-2] | 5400 |
| CN(Cc1ccc(/C=C2\SC(=O)NC2=O)cc1)C[C@@H]1C[C@@H](OCc2ccccc2-c2ccccc2)CN1C(=O)c1ccccc1C(=O)c1ccc(F)cc1 [Compound G-3] | 3300 |
| CC(=O)N(Cc1ccc(/C=C2\SC(=S)NC2=O)cc1)C[C@@H]1C[C@@H](OCc2ccccc2-c2ccccc2)CN1C(=O)c1ccccc1C(=O)c1ccc(F)cc1 [Compound G-5] | 1600 |
| CC(=O)N(Cc1ccc(/C=C2\SC(=O)NC2=O)cc1)C[C@@H]1C[C@@H](OCc2ccccc2-c2ccccc2)CN1C(=O)c1ccccc1C(=O)c1ccc(F)cc1 [Compound G-7] | 2800 |
| O=C1NC(=S)S/C1=C\c1ccc(CN(C[C@@H]2C[C@@H](OCc3ccccc3-c3ccccc3)CN2C(=O)c2ccccc2C(=O)c2ccc(F)cc2)C(=O)c2ccccc2)cc1 [Compound G-8] | 1100 |

| Structure (SMILES) | IC50 [nM] |
| --- | --- |
| O=C1NC(=O)/C(=C/c2ccc(CN(C[C@@H]3C[C@@H](OCc4ccccc4-c4ccccc4)CN3C(=O)c3ccccc3C(=O)c3ccc(F)cc3)C(=O)c3ccccc3)cc2)S1 [Compound G-9] | 1300 |
| CN(C(=O)[C@@H]1C[C@@H](OCc2ccccc2-c2ccccc2)CN1C(=O)c1ccccc1C(=O)c1ccc(F)cc1)c1ccc(/C=C2\SC(=O)NC2=O)cc1 [Compound G-10] | 2400 |
| CN(C(=O)[C@@H]1C[C@@H](OCc2ccccc2-c2ccccc2)CN1C(=O)c1ccccc1C(=O)c1ccc(F)cc1)c1ccc(/C=C2\SC(=S)NC2=O)cc1 [Compound G-11] | 4000 |
| CN(C(=O)[C@@H]1C[C@@H](OCc2ccccc2-c2ccccc2)CN1C(=O)c1ccccc1C(=O)c1ccc(F)cc1F)c1ccc(/C=C2\SC(=S)NC2=O)cc1 [Compound G-12] | 2800 |
| CN(C(=O)C[C@@H]1C[C@@H](OCc2ccccc2-c2ccccc2)CN1C(=O)c1ccccc1C(=O)c1ccc(F)cc1)c1ccc(/C=C2\SC(=O)NC2=O)cc1 [Compound G-13] | 5600 |
| O=C1NC(=S)SC1=C[C@@H]1C[C@@H](OCc2ccccc2-c2ccccc2)CN1C(=O)c1ccccc1C(=O)c1ccc(F)cc1 [Compound H-1] | 10000 |
| O=C1NC(=O)/C(=C/C2CCN(C(=O)[C@@H]3C[C@@H](SCc4ccccc4-c4ccccc4)CN3C(=O)c3ccccc3C(=O)c3ccc(F)cc3)CC2)S1 [Compound J-5] | 8600 |
| O=C1NC(=S)S/C1=C\C1CCN(C(=O)[C@@H]2C[C@@H](SCc3ccccc3-c3ccccc3)CN2C(=O)c2ccccc2C(=O)c2ccc(F)cc2)CC1 [Compound J-6] | 13000 |
| CN(Cc1ccccc1)[C@@H]1C[C@@H](CNC(=O)c2ccc(/C=C3\SC(=O)NC3=O)cc2)N(C(=O)c2ccccc2C(=O)c2ccc(F)cc2)C1 [Compound M-1] | 1500 |
| CN(Cc1ccccc1)[C@@H]1C[C@@H](CNC(=O)c2ccc(/C=C3\SC(=S)NC3=O)cc2)N(C(=O)c2ccccc2C(=O)c2ccc(F)cc2)C1 [Compound M-2] | 1400 |
| CC(C)N(Cc1ccccc1)[C@@H]1C[C@@H](CNC(=O)c2ccc(/C=C3\SC(=S)NC3=O)cc2)N(C(=O)c2ccccc2C(=O)c2ccc(F)cc2)C1 [Compound M-4] | 140 |
| CC(C)CN(C(c1ccccc1)c1ccccc1)[C@@H]1C[C@@H](CNC(=O)c2ccc(/C=C3\SC(=O)NC3=O)cc2)N(C(=O)c2ccccc2C(=O)c2ccc(F)cc2)C1 [Compound M-13] | 13 |
| CC(C)CN(CC(C)C)[C@@H]1C[C@@H](CNC(=O)c2ccc(/C=C3\SC(=O)NC3=O)cc2)N(C(=O)c2ccccc2C(=O)c2ccc(F)cc2)C1 [Compound M-15] | 150 |
| O=C1NC(=O)/C(=C/c2ccc(C(=O)NC[C@@H]3C[C@@H](NC(=O)c4ccccc4-c4ccccc4)CN3C(=O)c3ccccc3C(=O)c3ccc(F)cc3)cc2)S1 [Compound M-16] | 2000 |
| CC(C)CN(Cc1ccccc1-c1ccccc1)[C@@H]1C[C@@H](CNC(=O)/C=C/c2ccc(/C=C3\SC(=O)NC3=O)cc2)N(C(=O)c2ccccc2C(=O)c2ccc(F)cc2)C1 [Compound M-19] | 3.1 |
| CC(C)CN(C(c1ccccc1)c1ccccc1)[C@@H]1C[C@@H](CNC(=O)/C=C/c2ccc(/C=C3\SC(=O)NC3=O)cc2)N(C(=O)c2ccccc2C(=O)c2ccc(F)cc2)C1 [Compound M-20] | 6.4 |
| CCN(Cc1ccccc1-c1ccccc1)[C@@H]1C[C@@H](C(=O)Nc2ccc(/C=C3\SC(=O)NC3=O)cc2)N(C(=O)c2ccccc2C(=O)c2ccc(F)cc2)C1 [Compound N-4] | 69 |
| CCN(Cc1ccccc1-c1ccccc1)[C@@H]1C[C@@H](C(=O)Nc2ccc(/C=C3\SC(=S)NC3=O)cc2)N(C(=O)c2ccccc2C(=O)c2ccc(F)cc2)C1 [Compound N-5] | 240 |
